According to PubChem BioAssay AID1963849 (Molecular Pharmacology Branch, DTP, NCI, 2024):

System: 299254-011-R-J1-PDC complex spheroid viability
Assay: Anticancer human tumor 299254-011-R-J1-PDC patient-derived melanoma cell line growth inhibition [POLQ]
Settings: for IC50: curve of first compound; for viability, T/C: stronger effect = lower value
Outline: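 Growth inhibition in 3D: complex spheroids (tumor PDC, HUVEC, MSC) treated with POLQ inhibitor combinations; where Cmax unknown, highest tested concentration 10 microM, except SN-38 at 1 microM.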

[1] = second compound 0.0316 µM, first compound 0.0316 µM
[2] = second compound 0.0316 µM, first compound 0.1 µM
[3] = second compound 0.0316 µM, first compound 0.316 µM
[4] = second compound 0.0316 µM, first compound 1 µM
[5] = second compound 0.1 µM, first compound 0.0316 µM
[6] = second compound 0.1 µM, first compound 0.1 µM
[7] = second compound 0.1 µM, first compound 0.316 µM
[8] = second compound 0.1 µM, first compound 1 µM
[9] = second compound 0.316 µM, first compound 0.0316 µM
[10] = second compound 0.316 µM, first compound 0.1 µM
[11] = second compound 0.316 µM, first compound 0.316 µM
[12] = second compound 0.316 µM, first compound 1 µM
[13] = second compound 1 µM, first compound 0.0316 µM
[14] = second compound 1 µM, first compound 0.1 µM
[15] = second compound 1 µM, first compound 0.316 µM
[16] = second compound 1 µM, first compound 1 µM
[17] = second compound 3.16 µM, first compound 0.0316 µM
[18] = second compound 3.16 µM, first compound 0.1 µM
[19] = second compound 3.16 µM, first compound 0.316 µM
[20] = second compound 3.16 µM, first compound 1 µM
[21] = second compound 10 µM, first compound 0.0316 µM
[22] = second compound 10 µM, first compound 0.1 µM
[23] = second compound 10 µM, first compound 0.316 µM
[24] = second compound 10 µM, first compound 1 µM
[25] = second compound 0.0316 µM, first compound 3.16 µM
[26] = second compound 0.0316 µM, first compound 10 µM
[27] = second compound 0.1 µM, first compound 3.16 µM
[28] = second compound 0.1 µM, first compound 10 µM
[29] = second compound 0.316 µM, first compound 3.16 µM
[30] = second compound 0.316 µM, first compound 10 µM
[31] = second compound 1 µM, first compound 3.16 µM
[32] = second compound 1 µM, first compound 10 µM
[33] = second compound 3.16 µM, first compound 3.16 µM
[34] = second compound 3.16 µM, first compound 10 µM
[35] = second compound 10 µM, first compound 3.16 µM
[36] = second compound 10 µM, first compound 10 µM
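Further: spheroids exposed to drugs for one week before measurement.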
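Wherever viability, T/C is given: percent viability relative to DMSO vehicle control taken as 100%.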

`CCc1c2c(nc3ccc(O)cc13)-c1cc3c(c(=O)n1C2)COC(=O)[C@]3(O)CC` + Nc1ccc(C#CCN(C(=O)Cc2ncc(C(F)(F)F)cc2C(F)(F)F)c2ccc(F)cc2)nn1 showed an IC50 (second compound 0.0316 µM) greater than 1 µM, an IC50 (second compound 0.1 µM) greater than 1 µM and an IC50 (second compound 0.316 µM) greater than 1 µM. The IC50 (second compound 1 µM) was greater than 1 µM, the IC50 (second compound 3.16 µM) was greater than 1 µM and the IC50 (second compound 10 µM) was greater than 1 µM. It also gave a viability, T/C (second compound 0.0316 µM, first compound 0.00316 µM) of 94.8%, a viability, T/C (second compound 0.0316 µM, first compound 0.01 µM) of 85.3% and a viability, T/C [1] of 81.9%. The viability, T/C [2] was 75.5%, the viability, T/C [3] was 76.8% and the viability, T/C [4] was 63.9%. It also gave a viability, T/C (second compound 0.1 µM, first compound 0.00316 µM) of 89.7%, a viability, T/C (second compound 0.1 µM, first compound 0.01 µM) of 85.5% and a viability, T/C [5] of 72.2%. It also gave a viability, T/C [6] of 77.2%, a viability, T/C [7] of 68.7% and a viability, T/C [8] of 57.9%. It also gave a viability, T/C (second compound 0.316 µM, first compound 0.00316 µM) of 108%, a viability, T/C (second compound 0.316 µM, first compound 0.01 µM) of 81.7% and a viability, T/C [9] of 69.5%. The viability, T/C [10] was 79%, the viability, T/C [11] was 71% and the viability, T/C [12] was 58.5%. For the same molecule, the viability, T/C (second compound 1 µM, first compound 0.00316 µM) was 111%, the viability, T/C (second compound 1 µM, first compound 0.01 µM) was 85.3% and the viability, T/C [13] was 73.9%. The viability, T/C [14] was 79.5%, the viability, T/C [15] was 63.6% and the viability, T/C [16] was 55.6%. The viability, T/C (second compound 3.16 µM, first compound 0.00316 µM) was 97.6%, the viability, T/C (second compound 3.16 µM, first compound 0.01 µM) was 84.1% and the viability, T/C [17] was 81.9%. The viability, T/C [18] was 72.3%, the viability, T/C [19] was 72.9% and the viability, T/C [20] was 59.9%. It also gave a viability, T/C (second compound 10 µM, first compound 0.00316 µM) of 96.4%, a viability, T/C (second compound 10 µM, first compound 0.01 µM) of 73.2% and a viability, T/C [21] of 68.7%. The viability, T/C [22] was 71.1%, the viability, T/C [23] was 61.9% and the viability, T/C [24] was 61.5%.
`CCc1cc2c(N3CCc4c(cc(Cn5ccnc5)cc4-c4cn(C)nc4C(F)(F)F)C3=O)ccnc2c(OC)n1` + COC1C(OC(N)=O)C(O)C(Oc2ccc3c(O)c(NC(=O)c4ccc(O)c(CC=C(C)C)c4)c(=O)oc3c2C)OC1(C)C was tested, and the IC50 (second compound 0.0316 µM) was greater than 10 µM, the IC50 (second compound 0.1 µM) was greater than 10 µM and the IC50 (second compound 0.316 µM) was greater than 10 µM. For the same molecule, the IC50 (second compound 1 µM) was greater than 10 µM, the IC50 (second compound 3.16 µM) was greater than 10 µM and the IC50 (second compound 10 µM) was greater than 10 µM. For the same molecule, the viability, T/C [1] was 115%, the viability, T/C [2] was 104% and the viability, T/C [3] was 111%. For the same molecule, the viability, T/C [4] was 116%, the viability, T/C [25] was 107% and the viability, T/C [26] was 82.2%. The viability, T/C [5] was 110%, the viability, T/C [6] was 105% and the viability, T/C [7] was 101%. The viability, T/C [8] was 85.2%, the viability, T/C [27] was 92.2% and the viability, T/C [28] was 71.3%. The viability, T/C [9] was 93%, the viability, T/C [10] was 121% and the viability, T/C [11] was 101%. The viability, T/C [12] was 95.8%, the viability, T/C [29] was 101% and the viability, T/C [30] was 91.4%. The viability, T/C [13] was 107%, the viability, T/C [14] was 110% and the viability, T/C [15] was 106%. For the same molecule, the viability, T/C [16] was 106%, the viability, T/C [31] was 113% and the viability, T/C [32] was 84.7%. The viability, T/C [17] was 99.3%, the viability, T/C [18] was 101% and the viability, T/C [19] was 116%. For the same molecule, the viability, T/C [20] was 114%, the viability, T/C [33] was 92.9% and the viability, T/C [34] was 80%. It also gave a viability, T/C [21] of 120%, a viability, T/C [22] of 99.2% and a viability, T/C [23] of 111%. The viability, T/C [24] was 118%, the viability, T/C [35] was 97.5% and the viability, T/C [36] was 81.4%.
`CC(C)n1c(=O)n(C)c2cnc3cc(F)c(-c4ccc(OCCCN5CCCCC5)nc4)cc3c21` + COC1C(OC(N)=O)C(O)C(Oc2ccc3c(O)c(NC(=O)c4ccc(O)c(CC=C(C)C)c4)c(=O)oc3c2C)OC1(C)C was tested, and the IC50 (second compound 0.0316 µM) was greater than 10 µM, the IC50 (second compound 0.1 µM) was greater than 10 µM and the IC50 (second compound 0.316 µM) was greater than 10 µM. The IC50 (second compound 1 µM) was greater than 10 µM, the IC50 (second compound 3.16 µM) was greater than 10 µM and the IC50 (second compound 10 µM) was greater than 10 µM. For the same molecule, the viability, T/C [1] was 145%, the viability, T/C [2] was 129% and the viability, T/C [3] was 109%. It also gave a viability, T/C [4] of 126%, a viability, T/C [25] of 112% and a viability, T/C [26] of 111%. It also gave a viability, T/C [5] of 113%, a viability, T/C [6] of 127% and a viability, T/C [7] of 128%. For the same molecule, the viability, T/C [8] was 131%, the viability, T/C [27] was 112% and the viability, T/C [28] was 91.2%. For the same molecule, the viability, T/C [9] was 121%, the viability, T/C [10] was 147% and the viability, T/C [11] was 117%. The viability, T/C [12] was 121%, the viability, T/C [29] was 114% and the viability, T/C [30] was 110%. The viability, T/C [13] was 113%, the viability, T/C [14] was 111% and the viability, T/C [15] was 132%. For the same molecule, the viability, T/C [16] was 107%, the viability, T/C [31] was 112% and the viability, T/C [32] was 82.9%. The viability, T/C [17] was 112%, the viability, T/C [18] was 130% and the viability, T/C [19] was 116%. The viability, T/C [20] was 118%, the viability, T/C [33] was 123% and the viability, T/C [34] was 102%. For the same molecule, the viability, T/C [21] was 126%, the viability, T/C [22] was 128% and the viability, T/C [23] was 139%. The viability, T/C [24] was 128%, the viability, T/C [35] was 135% and the viability, T/C [36] was 115%.
For `O=c1[nH]cc(F)c(=O)[nH]1` + Nc1ccc(C#CCN(C(=O)Cc2ncc(C(F)(F)F)cc2C(F)(F)F)c2ccc(F)cc2)nn1, the IC50 (second compound 0.0316 µM) was greater than 10 µM, the IC50 (second compound 0.1 µM) was greater than 10 µM and the IC50 (second compound 0.316 µM) was greater than 10 µM. The IC50 (second compound 1 µM) was greater than 10 µM, the IC50 (second compound 3.16 µM) was greater than 10 µM and the IC50 (second compound 10 µM) was greater than 10 µM. The viability, T/C [1] was 92.7%, the viability, T/C [2] was 111% and the viability, T/C [3] was 101%. The viability, T/C [4] was 113%, the viability, T/C [25] was 89.8% and the viability, T/C [26] was 81.4%. The viability, T/C [5] was 103%, the viability, T/C [6] was 91.2% and the viability, T/C [7] was 119%. The viability, T/C [8] was 87%, the viability, T/C [27] was 82.5% and the viability, T/C [28] was 85.3%. It also gave a viability, T/C [9] of 92%, a viability, T/C [10] of 93.3% and a viability, T/C [11] of 101%. It also gave a viability, T/C [12] of 101%, a viability, T/C [29] of 95.1% and a viability, T/C [30] of 68%. For the same molecule, the viability, T/C [13] was 116%, the viability, T/C [14] was 99.8% and the viability, T/C [15] was 95.1%. For the same molecule, the viability, T/C [16] was 85.6%, the viability, T/C [31] was 91.5% and the viability, T/C [32] was 78.5%. For the same molecule, the viability, T/C [17] was 104%, the viability, T/C [18] was 95% and the viability, T/C [19] was 101%. The viability, T/C [20] was 96.8%, the viability, T/C [33] was 84.3% and the viability, T/C [34] was 89.5%. The viability, T/C [21] was 91.1%, the viability, T/C [22] was 94.2% and the viability, T/C [23] was 101%. For the same molecule, the viability, T/C [24] was 95.4%, the viability, T/C [35] was 88.7% and the viability, T/C [36] was 69.1%.
